Measurements reported in patent publication US10053457B2, “Hydroxyalkyl-piperazine derivatives as CXCR3 receptor modulators” (IDORSIA PHARMACEUTICALS LTD, priority 2015, dated 2018).
pIC50: −log10 of the molar value.

Tests used:
Assay type in all cases: cell-based
hERG K channel = hERG K channel (Homo sapiens (Human), UniProt Q12809); assay: hERG Q-Patch assay; details: CHO cells expressing hERG, K+ tail current 3 min after application, mean of two or three experiments
Procedure: Compounds are evaluated for block of the hERG K channel using CHO cells stably expressing the hERG gene (accession number U04270, bSys, Witterswil, Switzerland) and the QPatch robotic platform (Sophion, Ballerup, Denmark) in single-cell mode at room temperature. Cells are grown in culture flasks at 37° C. in 5% CO2, in culture medium (Ham's F-12 Nutrient Mixture, Invitrogen 21765-029) supplemented with 9% (v/v) fetal calf serum, 0.9% Penicillin/Streptomycin (10,000 U/mL, Invitrogen 15140148), 100 μg/mL Hygromycin B (Invitrogen 10687010). When the cells are ˜80% confluent (every 2-3 days), they are either split for further culture or used for electrophysiology. For further culture, cells are detached with 0.25% Trypsin EDTA solution (Invitrogen 25200-056) and a fraction of the cells (10-30%) is reseeded in culture medium. For electrophysiology, on the experimental day, cells are detached with 0.25% Trypsin EDTA solution and all cells are suspended in suspension medium (293 SFM II, Invitrogen 11686-029) supplemented with 20 mM HEPES and 0.04 mg/mL Trypsin inhibitor. Cells are kept in suspension medium at 32-35° C. in the QPatch robot until use, at which time aliquots are transferred to the extracellular solution (in mM: NaCl 150; KCl 4; CaCl2 1.2; MgCl2 1; HEPES 10; pH 7.4 with NaOH) containing 0.3% v/v DMSO and applied to the test plates. K^+ currents are measured with the patch-voltage-clamp technique in the whole-cell configuration with the internal solution (in mM: KCl, 140; NaCl, 10; MgCl2, 1; HEPES, 10: EGTA, 5; pH=7.2 with KOH). Currents are low-pass filtered using the internal Bessel filter of the QPatch robot with a cut-off frequency of 2 kHz and are digitized at 10 kHz. K^+ tail currents are produced from a holding voltage of −80 mV by a 500-ms depolarization to +20 mV followed by a 500-ms repolarization to −40 mV; tail current amplitudes are measured at the end of the repolarization to −40 mV. The pulse pattern is repeated every 10 sec during the experiment, baseline K^+ current is measured after 3 min in extracellular solution, test-solution containing compound is then applied, and K^+ current in presence of compound is measured 3 minutes after application to the cells. The respective test-solution is prepared by (1) dissolving the test-compound in pure DMSO, (2) diluting this DMSO solution in extracellular solution, and (3) adding further DMSO, such that the final test-solution has a concentration of either 300 nM or 3000 nM of the test-compound and contains 0.3% v/v DMSO. Compound effects are quantified as % block by dividing the current in presence of compound by the baseline current; two or three experiments are performed for each compound and the final value represents the mean of the results of each experiment.

CXCR3 = CXCR3 (Homo sapiens (Human), UniProt P49682); assay: Receptor internalization assay in human whole blood (CXCR3 surface expression on CD4 positive cells, CXCL10); details: final CXCL10 9 nM, 30 min at 37° C., mean values
Procedure: Diluted compounds are then mixed with an equal volume of CXCL10 (Peprotech) diluted in PBS. Anticoagulated venous human whole blood is added to the mixture, which is then incubated in a CO2 incubator at 37° C. to allow for ligand mediated receptor internalization (final CXCL10 concentration is 9 nM). After 30 min, the blood is mixed with fluorescently labeled CXCR3 and CD4 specific antibodies (Becton Dickinson) and incubated on ice for 10 minutes. Samples are then mixed with BD FACS Lysing Solution (Becton Dickinson) in order to eliminate red blood cells. After washing the cells with PBS containing 0.5% BSA, the samples are then analyzed in a flow cytometer (FACS Canto II, Becton Dickinson). For data analysis using FACSDiva software (Becton Dickinson), the mean fluorescence corresponding to CXCR3 cell surface expression was determined on CD4 positive cells. The program GraphPad Prism or similar software is used to fit the data to a single site dose response curve and to calculate IC50 values.
(§1) In the case where IC50 values have been determined several times for the same compound, mean values are given.

human CXCR3A = human CXCR3A (Homo sapiens (Human), UniProt P49682); assay: FLIPR assay (CXCL10-induced calcium signal); details: CHO-K1 cells expressing human CXCR3A coupled to Galpha(16); CXCL10 agonist 20 nM; mean values
Excerpt: as §1

human CXCR3A, sequence (P49682 whole entry): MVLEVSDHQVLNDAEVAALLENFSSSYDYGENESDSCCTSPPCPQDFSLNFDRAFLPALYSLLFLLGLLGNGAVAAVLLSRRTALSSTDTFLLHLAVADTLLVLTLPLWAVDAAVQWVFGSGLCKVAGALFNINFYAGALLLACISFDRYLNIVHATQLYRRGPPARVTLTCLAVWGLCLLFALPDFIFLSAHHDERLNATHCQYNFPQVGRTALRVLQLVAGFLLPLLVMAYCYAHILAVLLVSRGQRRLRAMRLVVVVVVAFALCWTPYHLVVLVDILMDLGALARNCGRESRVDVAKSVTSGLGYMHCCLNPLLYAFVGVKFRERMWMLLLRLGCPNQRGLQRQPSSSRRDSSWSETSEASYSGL
CXCR3, sequence (P49682 whole entry): as above
hERG K channel, sequence (Q12809 whole entry): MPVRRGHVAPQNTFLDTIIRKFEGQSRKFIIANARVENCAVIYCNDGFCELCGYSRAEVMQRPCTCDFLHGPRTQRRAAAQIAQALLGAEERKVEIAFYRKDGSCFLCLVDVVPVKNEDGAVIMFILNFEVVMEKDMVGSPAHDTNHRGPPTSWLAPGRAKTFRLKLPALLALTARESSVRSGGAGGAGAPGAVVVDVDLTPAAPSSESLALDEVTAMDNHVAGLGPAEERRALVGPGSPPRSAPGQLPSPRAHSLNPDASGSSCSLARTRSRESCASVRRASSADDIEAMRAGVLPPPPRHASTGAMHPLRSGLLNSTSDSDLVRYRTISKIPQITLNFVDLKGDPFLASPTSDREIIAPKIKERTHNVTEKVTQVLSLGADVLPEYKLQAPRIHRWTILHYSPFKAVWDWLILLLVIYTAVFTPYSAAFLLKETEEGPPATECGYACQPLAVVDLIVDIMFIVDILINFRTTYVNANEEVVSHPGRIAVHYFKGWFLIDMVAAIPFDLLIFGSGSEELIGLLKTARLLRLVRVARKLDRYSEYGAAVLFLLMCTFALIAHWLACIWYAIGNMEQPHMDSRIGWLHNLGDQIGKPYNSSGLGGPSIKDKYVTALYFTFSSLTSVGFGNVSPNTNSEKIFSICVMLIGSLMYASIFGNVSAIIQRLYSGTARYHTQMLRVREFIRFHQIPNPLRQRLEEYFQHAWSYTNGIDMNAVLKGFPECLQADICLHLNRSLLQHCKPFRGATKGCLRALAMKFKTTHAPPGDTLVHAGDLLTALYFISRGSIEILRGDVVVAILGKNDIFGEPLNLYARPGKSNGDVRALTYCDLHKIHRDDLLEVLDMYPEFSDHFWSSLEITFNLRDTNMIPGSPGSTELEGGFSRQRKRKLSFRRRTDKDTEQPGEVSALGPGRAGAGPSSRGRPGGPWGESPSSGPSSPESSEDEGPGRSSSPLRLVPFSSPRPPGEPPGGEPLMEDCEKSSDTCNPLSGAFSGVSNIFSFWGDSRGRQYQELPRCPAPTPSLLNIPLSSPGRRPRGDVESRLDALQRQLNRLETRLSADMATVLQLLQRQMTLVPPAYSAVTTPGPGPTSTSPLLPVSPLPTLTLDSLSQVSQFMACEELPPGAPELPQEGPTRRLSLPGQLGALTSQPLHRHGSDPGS

| Compound | % block (hERG K channel; concentration 300 nM) [%] | % block (hERG K channel; concentration 3000 nM) [%] | pIC50 (CXCR3) | pIC50 (human CXCR3A) |
| --- | --- | --- | --- | --- |
| Cc1nc(C)n(CC(=O)N2CCN(c3sc(C(F)(F)F)nc3-c3cnc(C(F)(F)F)nc3)C[C@H]2CCO)n1 [Example 27, 2-(3,5-Dimethyl-[1,2,4]triazol-1-yl)-1-{(R)-2-(2-hydroxy-ethyl)-4-[2-trifluoromethyl-4-(2-trifluoromethyl-pyrimidin-5-yl)-thiazol-5-yl]-piperazin-1-yl}-ethanone] | 1 | 4 | 6.63 | 8.28 |
| CCc1ncn(CC(=O)N2CCN(c3sc(C(F)(F)F)nc3-c3cnc(C(F)(F)F)nc3)C[C@H]2CCO)n1 [Example 32, 2-(3-Ethyl-[1,2,4]triazol-1-yl)-1-{(R)-2-(2-hydroxy-ethyl)-4-[2-trifluoromethyl-4-(2-trifluoromethyl-pyrimidin-5-yl)-thiazol-5-yl]-piperazin-1-yl}-ethanone] | 0 | 19 | 7.03 | 8.59 |
| CCc1ccn(CC(=O)N2CCN(c3sc(C(F)(F)F)nc3-c3cnc(C(F)(F)F)nc3)C[C@H]2CO)n1 [Example 43, 2-(3-Ethyl-pyrazol-1-yl)-1-{(S)-2-hydroxymethyl-4-[2-trifluoromethyl-4-(2-trifluoromethyl-pyrimidin-5-yl)-thiazol-5-yl]-piperazin-1-yl}-ethanone] | 5 | 25 | 7.39 | 8.92 |
| O=C(Cn1cnc(C(F)(F)F)n1)N1CCN(c2sc(C(F)(F)F)nc2-c2cnc(C(F)(F)F)nc2)C[C@H]1CCO [Example 28, 1-{(R)-2-(2-Hydroxy-ethyl)-4-[2-trifluoromethyl-4-(2-trifluoromethyl-pyrimidin-5-yl)-thiazol-5-yl]-piperazin-1-yl}-2-(3-trifluoromethyl-[1,2,4]triazol-1-yl)-ethanone] | 6 | 40 | 6.67 | 8.96 |
| COc1ccc2c(ccn2CC(=O)N2CCN(c3sc(C(F)(F)F)nc3-c3cnc(C(F)(F)F)nc3)C[C@@H]2CO)c1 [Example 15, 1-{(R)-2-Hydroxymethyl-4-[2-trifluoromethyl-4-(2-trifluoromethyl-pyrimidin-5-yl)-thiazol-5-yl]-piperazin-1-yl}-2-(5-methoxy-indol-1-yl)-ethanone] | 8 | 35 | 5.78 | 8.64 |
| CC(C)c1ncn(CC(=O)N2CCN(c3sc(C(F)(F)F)nc3-c3cnc(C(F)(F)F)nc3)C[C@@H]2CO)n1 [Example 11, 1-{(R)-2-Hydroxymethyl-4-[2-trifluoromethyl-4-(2-trifluoromethyl-pyrimidin-5-yl)-thiazol-5-yl]-piperazin-1-yl}-2-(3-isopropyl-[1,2,4]triazol-1-yl)-ethanone] | 5 | 11 | 6.47 | 8.47 |
| O=C(Cn1cnc(C2CC2)n1)N1CCN(c2sc(C(F)(F)F)nc2-c2cnc(C(F)(F)F)nc2)C[C@H]1CCO [Example 31, 2-(3-Cyclopropyl-[1,2,4]triazol-1-yl)-1-{(R)-2-(2-hydroxy-ethyl)-4-[2-trifluoromethyl-4-(2-trifluoromethyl-pyrimidin-5-yl)-thiazol-5-yl]-piperazin-1-yl}-ethanone] | 2 | 23 | 7.13 | 8.36 |
| CC(C)(C)c1ncn(CC(=O)N2CCN(c3sc(C(F)(F)F)nc3-c3cnc(C(F)(F)F)nc3)C[C@H]2CO)n1 [Example 1, 2-(3-tert-Butyl-[1,2,4]triazol-1-yl)-1-{(S)-2-hydroxymethyl-4-[2-trifluoromethyl-4-(2-trifluoromethyl-pyrimidin-5-yl)-thiazol-5-yl]-piperazin-1-yl}-ethanone] | 2 | 12 | 6.38 | 8.17 |
| O=C(Cn1cnc(C2CCC2)n1)N1CCN(c2sc(C(F)(F)F)nc2-c2cnc(C(F)(F)F)nc2)C[C@H]1CCO [Example 29, 2-(3-Cyclobutyl-[1,2,4]triazol-1-yl)-1-{(R)-2-(2-hydroxy-ethyl)-4-[2-trifluoromethyl-4-(2-trifluoromethyl-pyrimidin-5-yl)-thiazol-5-yl]-piperazin-1-yl}-ethanone] | 4 | 38 | 6.80 | 8.26 |
| CC(=O)c1ncn(CC(=O)N2CCN(c3sc(C(F)(F)F)nc3-c3cnc(C(F)(F)F)nc3)C[C@@H]2CO)n1 [Example 20, 2-(3-Acetyl-[1,2,4]triazol-1-yl)-1-{(R)-2-hydroxymethyl-4-[2-trifluoromethyl-4-(2-trifluoromethyl-pyrimidin-5-yl)-thiazol-5-yl]-piperazin-1-yl}-ethanone] | 2 | 3 | 5.62 | 8.19 |
| Cc1nc(C)n(CC(=O)N2CCN(c3sc(C(F)(F)F)nc3-c3cnc(C4CC4)nc3)C[C@H]2CO)n1 [Example 8, 1-{(S)-4-[4-(2-Cyclopropyl-pyrimidin-5-yl)-2-trifluoromethyl-thiazol-5-yl]-2-hydroxymethyl-piperazin-1-yl}-2-(3,5-dimethyl-[1,2,4]triazol-1-yl)-ethanone] | 19 | 54 | 5.49 | 8.00 |
| O=C(Cn1cnc(C(F)(F)F)n1)N1CCN(c2sc(C(F)(F)F)nc2-c2cnc(C3CC3)nc2)C[C@H]1CO [Example 9, 1-{(S)-4-[4-(2-Cyclopropyl-pyrimidin-5-yl)-2-trifluoromethyl-thiazol-5-yl]-2-hydroxymethyl-piperazin-1-yl}-2-(3-trifluoromethyl-[1,2,4]triazol-1-yl)-ethanone] | 8 | 24 | 5.82 | 8.89 |
| Cc1nc(C)n(CC(=O)N2CCN(c3sc(C(F)(F)F)nc3-c3cnc(C(F)(F)F)nc3)C[C@H]2CO)n1 [Example 2, 2-(3,5-Dimethyl-[1,2,4]triazol-1-yl)-1-{(S)-2-hydroxymethyl-4-[2-trifluoromethyl-4-(2-trifluoromethyl-pyrimidin-5-yl)-thiazol-5-yl]-piperazin-1-yl}-ethanone] | −3 | −4 | 6.33 | 8.22 |
| O=C(Cn1cnc(-c2ccccc2)n1)N1CCN(c2sc(C(F)(F)F)nc2-c2cnc(C(F)(F)F)nc2)C[C@@H]1CO [Example 19, 1-{(R)-2-Hydroxymethyl-4-[2-trifluoromethyl-4-(2-trifluoromethyl-pyrimidin-5-yl)-thiazol-5-yl]-piperazin-1-yl}-2-(3-phenyl-[1,2,4]triazol-1-yl)-ethanone] | 6 | 41 | 5.48 | 7.38 |
| COCc1ncn(CC(=O)N2CCN(c3sc(C(F)(F)F)nc3-c3cnc(C(F)(F)F)nc3)C[C@H]2CCO)n1 [Example 37, 1-{(R)-2-(2-Hydroxy-ethyl)-4-[2-trifluoromethyl-4-(2-trifluoromethyl-pyrimidin-5-yl)-thiazol-5-yl]-piperazin-1-yl}-2-(3-methoxymethyl-[1,2,4]triazol-1-yl)-ethanone] | 4 | 9 | 6.41 | 8.24 |
